This is an account of results in patent EP4596574A1, “GLP-1/GCG/GIP TRIPLE-RECEPTOR AGONIST AND USE THEREOF” (Sunshine Lake Pharma Co., Ltd., priority 2022, dated 2024).

The structures appear in SMILES notation. Starred links: 1 amine or outer side, 2 acyl side, 3 side chain; linkers in the order of their positions; H or OH if unused. Non-standard residues stand in square brackets, D forms with d. Residues, ends and D or L forms follow the SMILES beside them. Groups on a side chain read outwards from the residue. *: point of attachment. C20 diacid = O=C(O)CCCCCCCCCCCCCCCCCCC(=O)*; C18 diacid = O=C(O)CCCCCCCCCCCCCCCCC(=O)*; αMePhe(2-F) = C[C@](N)(Cc1ccccc1F)C(=O)O; γGlu = O=C(O)[C@H](CCC(=O)[*:2])N[*:1]; AEEA = NCCOCCOCC(=O)O; Aib = CC(C)(N)C(=O)O

What all share (type): cell-based
The target in one test is T1, GLP-1R (Homo sapiens, UniProt P43220).
T1 construct: expressed in transfected cells; host or cells: HEK293 (HEK293-GLP-1R)
T1 sequence (P43220 24-463, species assumed): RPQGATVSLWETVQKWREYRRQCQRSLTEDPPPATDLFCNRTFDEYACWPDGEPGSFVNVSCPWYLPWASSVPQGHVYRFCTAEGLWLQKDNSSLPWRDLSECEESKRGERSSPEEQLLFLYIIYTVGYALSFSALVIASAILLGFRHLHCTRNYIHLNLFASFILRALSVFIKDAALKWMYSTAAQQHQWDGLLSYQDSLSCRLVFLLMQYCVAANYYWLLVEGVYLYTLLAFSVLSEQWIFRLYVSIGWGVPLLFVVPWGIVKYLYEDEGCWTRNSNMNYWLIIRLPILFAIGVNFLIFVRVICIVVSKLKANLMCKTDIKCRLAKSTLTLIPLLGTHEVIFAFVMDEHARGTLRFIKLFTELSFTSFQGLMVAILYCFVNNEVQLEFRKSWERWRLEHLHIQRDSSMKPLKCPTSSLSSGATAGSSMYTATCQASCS
As to the kind of experiment: In vitro cell activity, cAMP production in HEK293 cells expressing GLP-1R. The settings on record: HEK293-GLP-1R cells, cAMP; read-out: GLP-1R (EC50). The procedure, abridged:
(§1)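 cAMP output read as 665/620 nm HTRF ratio after adding cAMP-d2 plus anti-cAMP cryptate and incubating 1 h at room temperature in the dark or overnight at 4 °C. Cells: HEK293 expressing human GLP-1R or GCGR, plated from a 4×10^5 cells/mL suspension. Four-parameter fit gives EC50.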
A general note: Cyclic AMP is a second messenger, typically raised through Gs and lowered through Gi signalling.

The target of the next test is T2, GCGR (Homo sapiens, UniProt P47871).
T2 construct: expressed in transfected cells; host or cells: HEK293 (HEK293-GCGR)
T2 sequence (P47871 26-477, species assumed): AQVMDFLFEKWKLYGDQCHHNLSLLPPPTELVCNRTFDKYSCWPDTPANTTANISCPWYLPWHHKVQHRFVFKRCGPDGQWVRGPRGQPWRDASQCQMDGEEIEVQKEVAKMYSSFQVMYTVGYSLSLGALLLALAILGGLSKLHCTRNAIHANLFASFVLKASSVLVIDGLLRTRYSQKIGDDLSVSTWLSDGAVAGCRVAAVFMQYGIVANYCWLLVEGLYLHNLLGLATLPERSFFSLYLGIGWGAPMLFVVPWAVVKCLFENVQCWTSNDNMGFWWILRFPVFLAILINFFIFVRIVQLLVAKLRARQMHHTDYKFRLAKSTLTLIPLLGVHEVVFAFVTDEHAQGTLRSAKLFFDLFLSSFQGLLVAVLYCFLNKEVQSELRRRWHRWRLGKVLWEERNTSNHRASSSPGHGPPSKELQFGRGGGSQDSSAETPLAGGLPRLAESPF
As to the kind of experiment: In vitro cell activity, cAMP production in HEK293 cells expressing GCGR. The conditions noted are these: HEK293-GCGR cells, cAMP; read-out: GCGR (EC50). In outline: as §1

The next test has as its target T3, GIPR (Homo sapiens, UniProt P48546).
T3 construct: expressed in transfected cells; host or cells: HEK293 (HEK293-GIPR)
T3 sequence (P48546 22-466): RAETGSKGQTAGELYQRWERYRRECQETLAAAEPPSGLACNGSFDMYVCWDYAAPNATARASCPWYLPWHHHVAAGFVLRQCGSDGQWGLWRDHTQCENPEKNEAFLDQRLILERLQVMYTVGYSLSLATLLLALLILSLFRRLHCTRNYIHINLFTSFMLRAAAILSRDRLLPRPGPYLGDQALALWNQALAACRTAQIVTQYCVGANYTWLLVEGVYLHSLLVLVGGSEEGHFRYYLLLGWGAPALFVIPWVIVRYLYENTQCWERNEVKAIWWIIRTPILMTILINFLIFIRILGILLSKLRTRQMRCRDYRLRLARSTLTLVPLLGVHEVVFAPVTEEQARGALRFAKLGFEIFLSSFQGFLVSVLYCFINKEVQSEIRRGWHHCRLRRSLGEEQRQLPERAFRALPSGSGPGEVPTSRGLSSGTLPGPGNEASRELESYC
As to the kind of experiment: In vitro cell activity, cAMP production in HEK293 cells expressing GIPR. The conditions noted are these: HEK293-GIPR cells, cAMP; read-out: GIPR (EC50). In outline:
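HEK293 cells expressing human GIPR, thawed and diluted to 4×10^5 cells/mL, are stimulated with test compound. cAMP is measured by HTRF competition between cAMP-d2 and anti-cAMP cryptate. EC50 comes from a four-parameter nonlinear fit of signal ratio against concentration.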

In general, EC50 refers to the concentration that produces a half-maximal response. Regarding `CC[C@H](C)[C@H](NC(=O)[C@H](CCC(=O)O)NC(=O)[C@H](CC(=O)O)NC(=O)[C@H](CC(C)C)NC(=O)[C@H](CC(C)C)NC(=O)[C@@H](NC(=O)[C@H](CO)NC(=O)[C@H](Cc1ccc(O)cc1)NC(=O)[C@H](CC(=O)O)NC(=O)[C@H](CO)NC(=O)[C@@H](NC(=O)[C@](C)(Cc1ccccc1F)NC(=O)[C@@H](NC(=O)CNC(=O)[C@H](Cc1c[nH]cn1)NC(=O)C(C)(C)NC(=O)[C@@H](N)Cc1ccc(O)cc1)[C@@H](C)O)[C@@H](C)O)[C@@H](C)CC)C(=O)N[C@@H](C)C(=O)N[C@@H](CCC(N)=O)C(=O)N[C@@H](CCCCNC(=O)COCCOCCNC(=O)COCCOCCNC(=O)CC[C@H](NC(=O)CCCCCCCCCCCCCCCCCCC(=O)O)C(=O)O)C(=O)N[C@@H](CC(=O)O)C(=O)N[C@@H](Cc1ccccc1)C(=O)N[C@H](C(=O)N[C@@H](CCC(=O)O)C(=O)N[C@@H](Cc1c[nH]c2ccccc12)C(=O)N[C@@H](CC(C)C)C(=O)N[C@@H](CC(C)C)C(=O)N[C@@H](CCC(=O)O)C(=O)NCC(=O)NCC(=O)N1CCC[C@H]1C(=O)N[C@@H](CO)C(=O)N[C@@H](CO)C(=O)NCC(=O)N[C@@H](C)C(=O)N1CCC[C@H]1C(=O)N1CCC[C@H]1C(=O)N1CCC[C@H]1C(=O)N[C@@H](CO)C(=O)O)[C@@H](C)CC` [HEC-PT66] (H-Y[Aib]HGT[αMePhe(2-F)]TSDYSILLDEIAQK([AEEA-AEEA-γGlu-C20 diacid])DFIEWLLEGGPSSGAPPPS-OH), the EC50 on GLP-1R came to 7.14 nM; on GCGR, 12.3 nM; on GIPR, 0.213 nM.

With `CC[C@H](C)[C@H](NC(=O)[C@H](CO)NC(=O)[C@H](Cc1ccc(O)cc1)NC(=O)[C@H](CC(=O)O)NC(=O)[C@H](CO)NC(=O)[C@@H](NC(=O)[C@](C)(Cc1ccccc1F)NC(=O)[C@@H](NC(=O)CNC(=O)[C@H](CCC(N)=O)NC(=O)C(C)(C)NC(=O)[C@@H](N)Cc1ccc(O)cc1)[C@@H](C)O)[C@@H](C)O)C(=O)N[C@@H](CC(C)C)C(=O)N[C@@H](CC(C)C)C(=O)N[C@@H](CC(=O)O)C(=O)N[C@@H](CCC(=O)O)C(=O)N[C@@H](CCCCNC(=O)COCCOCCNC(=O)CC[C@H](NC(=O)CCCCCCCCCCCCCCCCC(=O)O)C(=O)O)C(=O)N[C@@H](CCCCN)C(=O)N[C@@H](CCC(N)=O)C(=O)NC(C)(C)C(=O)N[C@@H](CCC(=O)O)C(=O)N[C@@H](Cc1ccccc1)C(=O)N[C@H](C(=O)N[C@@H](CCC(=O)O)C(=O)N[C@@H](Cc1c[nH]c2ccccc12)C(=O)N[C@@H](CC(C)C)C(=O)N[C@@H](CC(C)C)C(=O)N[C@@H](C)C(=O)NCC(=O)NCC(=O)N1CCC[C@H]1C(=O)N[C@@H](CO)C(=O)N[C@@H](CO)C(=O)NCC(=O)N[C@@H](C)C(=O)N1CCC[C@H]1C(=O)N1CCC[C@H]1C(=O)N1CCC[C@H]1C(=O)N[C@@H](CO)C(N)=O)[C@@H](C)CC` [HEC-PT129], the EC50 worked out at 0.141 nM on GLP-1R, 0.525 nM on GCGR and 0.0439 nM at GIPR.

Consider `CC[C@H](C)[C@H](NC(=O)[C@H](CCCNC(=N)N)NC(=O)[C@H](CC(=O)O)NC(=O)[C@H](CCCCNC(=O)COCCOCCNC(=O)CC[C@H](NC(=O)CCCCCCCCCCCCCCCCC(=O)O)C(=O)O)NC(=O)[C@H](CC(C)C)NC(=O)[C@@H](NC(=O)[C@H](CO)NC(=O)[C@H](Cc1ccc(O)cc1)NC(=O)[C@H](CC(=O)O)NC(=O)[C@H](CO)NC(=O)[C@@H](NC(=O)[C@](C)(Cc1ccccc1F)NC(=O)[C@@H](NC(=O)CNC(=O)[C@H](CCC(N)=O)NC(=O)C(C)(C)NC(=O)[C@@H](N)Cc1ccc(O)cc1)[C@@H](C)O)[C@@H](C)O)[C@@H](C)CC)C(=O)N[C@@H](C)C(=O)N[C@@H](CCC(N)=O)C(=O)N[C@@H](CCCNC(=N)N)C(=O)N[C@@H](C)C(=O)N[C@@H](Cc1ccccc1)C(=O)N[C@H](C(=O)N[C@@H](CCC(=O)O)C(=O)N[C@@H](Cc1ccc(O)cc1)C(=O)N[C@@H](CC(C)C)C(=O)N[C@@H](CC(C)C)C(=O)N[C@@H](CCC(=O)O)C(=O)NCC(=O)NCC(=O)N1CCC[C@H]1C(=O)N[C@@H](CO)C(=O)N[C@@H](CO)C(=O)NCC(=O)N[C@@H](C)C(=O)N1CCC[C@H]1C(=O)N1CCC[C@H]1C(=O)N1CCC[C@H]1C(=O)N[C@@H](CO)C(=O)O)[C@@H](C)CC` [HEC-PT142] (H-Y[Aib]QGT[αMePhe(2-F)]TSDYSILK([AEEA-γGlu-C18 diacid])DRIAQRAFIEYLLEGGPSSGAPPPS-OH), for which the EC50 at GLP-1R came to 0.16 nM; on GCGR, 0.113 nM; at GIPR, 0.142 nM.

Turning to `CC[C@H](C)[C@H](NC(=O)[C@H](Cc1ccccc1)NC(=O)[C@H](C)NC(=O)C(C)(C)NC(=O)[C@H](CCC(N)=O)NC(=O)[C@H](CCCNC(=N)N)NC(=O)[C@@H](NC(=O)[C@H](CCCCN)NC(=O)[C@H](CC(=O)O)NC(=O)[C@H](CCCCNC(=O)COCCOCCNC(=O)CC[C@H](NC(=O)CCCCCCCCCCCCCCCCC(=O)O)C(=O)O)NC(=O)[C@H](CC(C)C)NC(=O)[C@@H](NC(=O)[C@H](CO)NC(=O)[C@H](Cc1ccc(O)cc1)NC(=O)[C@H](CC(=O)O)NC(=O)[C@H](CO)NC(=O)[C@@H](NC(=O)[C@](C)(Cc1ccccc1F)NC(=O)[C@@H](NC(=O)CNC(=O)[C@H](CCC(N)=O)NC(=O)C(C)(C)NC(=O)[C@@H](N)Cc1ccc(O)cc1)[C@@H](C)O)[C@@H](C)O)[C@@H](C)CC)[C@@H](C)CC)C(=O)N[C@@H](CCC(=O)O)C(=O)N[C@@H](Cc1ccc(O)cc1)C(=O)N[C@@H](CC(C)C)C(=O)N[C@@H](CC(C)C)C(=O)N[C@@H](C)C(=O)NCC(=O)NCC(=O)N1CCC[C@H]1C(=O)N[C@@H](CO)C(=O)N[C@@H](CO)C(=O)NCC(=O)N[C@@H](C)C(=O)N1CCC[C@H]1C(=O)N1CCC[C@H]1C(=O)N1CCC[C@H]1C(=O)N[C@@H](CO)C(N)=O` [HEC-PT145] (H-Y[Aib]QGT[αMePhe(2-F)]TSDYSILK([AEEA-γGlu-C18 diacid])DKIRQ[Aib]AFIEYLLAGGPSSGAPPPS-NH2), the EC50 on GLP-1R is 0.126 nM; on GCGR, 0.066 nM; on GIPR, 0.0316 nM.

On to `CC[C@H](C)[C@H](NC(=O)[C@H](CC(C)C)NC(=O)[C@H](Cc1c[nH]c2ccccc12)NC(=O)[C@H](CCC(N)=O)NC(=O)[C@@H](NC(=O)[C@H](Cc1ccccc1)NC(=O)[C@H](C)NC(=O)[C@H](CCC(N)=O)NC(=O)[C@H](CCC(N)=O)NC(=O)[C@H](C)NC(=O)[C@H](CCCCNC(=O)COCCOCCNC(=O)CC[C@H](NC(=O)CCCCCCCCCCCCCCCCCCC(=O)O)C(=O)O)NC(=O)[C@H](CCC(=O)O)NC(=O)[C@H](CC(=O)O)NC(=O)[C@H](CC(C)C)NC(=O)[C@H](CC(C)C)NC(=O)[C@@H](NC(=O)[C@H](CO)NC(=O)[C@H](Cc1ccc(O)cc1)NC(=O)[C@H](CC(=O)O)NC(=O)[C@H](CO)NC(=O)[C@@H](NC(=O)[C@](C)(Cc1ccccc1F)NC(=O)[C@@H](NC(=O)CNC(=O)[C@H](CCC(N)=O)NC(=O)C(C)(C)NC(=O)[C@@H](N)Cc1ccc(O)cc1)[C@@H](C)O)[C@@H](C)O)[C@@H](C)CC)C(C)C)C(=O)N[C@@H](C)C(=O)NCC(=O)NCC(=O)N1CCC[C@H]1C(=O)N[C@@H](CO)C(=O)N[C@@H](CO)C(=O)NCC(=O)N[C@@H](C)C(=O)N1CCC[C@H]1C(=O)N1CCC[C@H]1C(=O)N1CCC[C@H]1C(=O)N[C@@H](CO)C(=O)O` [HEC-PT92], for which the EC50 at GLP-1R came to 0.104 nM; on GCGR, 1.85 nM; on GIPR, 0.0779 nM.

Consider `CC[C@H](C)[C@H](NC(=O)[C@H](Cc1ccccc1)NC(=O)[C@H](C)NC(=O)C(C)(C)NC(=O)[C@H](CCC(N)=O)NC(=O)[C@H](C)NC(=O)[C@H](CCCCNC(=O)COCCOCCNC(=O)CC[C@H](NC(=O)CCCCCCCCCCCCCCCCC(=O)O)C(=O)O)NC(=O)[C@H](CCC(=O)O)NC(=O)[C@H](CC(=O)O)NC(=O)[C@H](CC(C)C)NC(=O)[C@H](CC(C)C)NC(=O)[C@@H](NC(=O)[C@H](CO)NC(=O)[C@H](Cc1ccc(O)cc1)NC(=O)[C@H](CC(=O)O)NC(=O)[C@H](CO)NC(=O)[C@@H](NC(=O)[C@](C)(Cc1ccccc1F)NC(=O)[C@@H](NC(=O)CNC(=O)[C@H](CCC(N)=O)NC(=O)C(C)(C)NC(=O)[C@@H](N)Cc1ccc(O)cc1)[C@@H](C)O)[C@@H](C)O)[C@@H](C)CC)C(=O)N[C@@H](CCC(=O)O)C(=O)N[C@@H](Cc1ccc(O)cc1)C(=O)N[C@@H](CC(C)C)C(=O)N[C@@H](CC(C)C)C(=O)N[C@@H](C)C(=O)NCC(=O)NCC(=O)N1CCC[C@H]1C(=O)N[C@@H](CO)C(=O)N[C@@H](CO)C(=O)NCC(=O)N[C@@H](C)C(=O)N1CCC[C@H]1C(=O)N1CCC[C@H]1C(=O)N1CCC[C@H]1C(=O)N[C@@H](CO)C(N)=O` [HEC-PT108], for which the EC50 came out at 0.197 nM at GLP-1R, 0.864 nM at GCGR and 0.054 nM at GIPR.
